# According to patent publication US8209131B2, “Therapeutic heparins and their binding to interleukins 4 and 5 and PECAM-1” (Curtin University of Technology, priority 2004, dated 2012):
# Like-named read-outs stand apart in the source and are kept apart here.
# How the values were obtained:
# [1] = BIAcore binding of proteins to heparin immobilised on a biosensor chip; conditions: for binding to immobilized heparin: recombinant proteins, FIG. 2
# From the text: This technology uses the optical phenomenon of surface plasmon resonance to monitor physical interactions between molecules. Passing the protein solution over a sensor surface to which the ligand is coupled monitors the real-time binding of proteins to an immobilized ligand. Detection is achieved by measuring refractive index changes very close to the sensor surface. When the refractive index is altered, the angle at which plasmon resonance occurs changes and this change directly correlates with the amount of protein interacting with the surface. A BIAcore 2000 is conveniently used. It is very sensitive and its microfluidics ensures that only small amounts of material are required.
# The HLGAGs are immobilized on the biosensor chip. Intact HLGAGs are biotinylated via amino groups, or reducing termini modified with ammonia by reductive amination, using sulfo-NHS-biotin. Biotinylated HLGAGs are immobilized on streptavidin-coupled sensor chips. Solutions containing proteins of interest are injected over the sensor chip surface, and the binding is measured in real time (Fernig, In: Proteoglycan protocols, Ed. R.V. Iozzo, Humana Press, Totowa, N.J., USA, 2001). […] In all cases binding is specific, as there is little or no interaction with sensor chips lacking heparin with any of the targeted proteins, and binding is inhibited by exogenous heparin. Initial analyzes indicate that the binding of rhIL-5 to heparin has affinity constants of the order from 50-5×10^−9. Because unsubstituted amines are variably present in heparan sulfates from different tissues, an alternative method of biotin labeling is recommended for the heparan sulfate chip. In this case, heparan sulfate is labeled via oxidized cis-diol residues using biotinyl-LC-hydrazine. […]
# Binding experiments with these proteins has indicated to which PECAM-1 domains heparin binds. Two binding assays were used: the assay where PECAM-1 is reacted with a BIAcore biosensor chip to which heparin has been immobilised and the second assay is the binding of PECAM-1 to heparan sulfate on the cell surface.
# Site directed mutagenesis was performed on IL-4. Basic residues within the proposed heparin binding site were changed to alanine and the proteins expressed using the baculovirus expression system. The one exception was R88 which was changed to valine. Insect cell expressed proteins were purified on an anti-IL-4 affinity column and checked for purity by SDS-PAGE and silver staining. Mutant IL-4 proteins were examined for their ability to bind heparin immobilised on a biosensor chip and binding assessed using a BIAcore 2000.
# TF1.8 cells = experiment: TF1.8 bioassay of IL-4 mutants (support of proliferation); format: cell-based, human; conditions: IL-4 wt and mutants, TF1.8 cells
# Experimental: TF-1.8 cells have been transfected with the firefly luciferase gene contained in the expression vector, pPGK-puromycin-luciferase (Coombe et al., 1998, Supra). The positive transfectants are cloned to produce a line with good luciferase expression. The proliferation assays are carried out in 96-well microplates suitable for such assays Falcon). The wells are flat bottomed, with white sides and a clear bottom. Cells are washed to remove any cytokine in the growth medium and then resuspended in RPMI/5% w/v FCS. The cells are counted with a Coulter Multisizer (Coulter Electronics, England) and routinely 2.5×10^4 cells are added to microplate wells that contain either no IL-4 (negative control) or various dilutions of IL-4. When the effect of HLGAGs, chondroitin sulfate C, or the heparin fractions of a particular length, or heparin fragments of a particular length and structure is to be measured, the wells also contain various concentrations of these molecules.
# The cells proliferate for 48 hours at 37° C. in a humidified atmosphere, after which the luciferase activity is measured by the addition of 50 μl of luciferase substrate buffer (50 mm Tris-HCl, pH 7.8, 15 mM MgSO4, 33.3 mM DTT, 0.1 mM EDTA, 0.5 mM Na-luciferin, 0.5 mM ATP, 0.25 mM lithium Co A and 0.5% v/v Triton X-100). […] Light emissions are detected on a Victor 1420 Multilabel counter (Wallac, Turku, Finland). […]
substance,measurement,setting,value
CypA: E. coli expressed Cyclophilin A,binding to immobilized heparin,[1],readily bind to heparin
WT: recombinant human wild-type IL-4,Kd,"[1]; FIG. 24, several IL-4 concentrations, read-out: estimated KD of wild-type IL-4 binding to heparin",5 to 10 nM
same,ka,"[1]; IL-4 WT and mutants binding to heparin, in M-1s-1 (unit assumed)",5.68E+04
same,kd,"[1]; IL-4 WT and mutants binding to heparin, in s-1 (unit assumed)",2.88E−03
same,Kd,"[1]; IL-4 WT and mutants binding to heparin, read-out: KD",52.7 nM
same,binding to immobilized heparin,[1],readily bind to heparin
same,"Conc needed for 50% growth, average",TF1.8 cells,0.99 ng/mL
"flag-PECAM-1: extracellular domain of PECAM-1 fused to the flag affinity tag, Cos-7 expressed",binding of PECAM-1 constructs to immobilised heparin,[1],can bind to the heparin chip
same,binding to immobilized heparin,[1],readily bind to heparin
rhIL-5: baculovirus expressed human IL-5,binding to immobilized heparin,[1],readily bind to heparin
